{"source": "PubChem BioAssay (NCI)", "assay_in_all_cases": "NCI anticancer screen, dose series, 48 h", "key": {"[1]": {"test_system": "MOLT-4 leukemia"}, "[2]": {"test_system": "NCI-H226 lung"}, "[3]": {"test_system": "NCI-H23 lung"}, "[4]": {"test_system": "NCI-H460 lung"}, "[5]": {"test_system": "NCI-H522 lung"}, "[6]": {"test_system": "NCI/ADR-RES ovarian"}, "[7]": {"test_system": "OVCAR-3 ovarian"}, "[8]": {"test_system": "OVCAR-5 ovarian"}, "[9]": {"test_system": "OVCAR-8 ovarian"}, "[10]": {"test_system": "PC-3 prostate"}, "[11]": {"test_system": "RPMI-8226 leukemia"}, "[12]": {"test_system": "RXF 393 renal"}, "[13]": {"test_system": "SF-268 CNS"}, "[14]": {"test_system": "SF-295 CNS"}, "[15]": {"test_system": "SF-539 CNS"}, "[16]": {"test_system": "SK-MEL-2 melanoma"}, "[17]": {"test_system": "SK-MEL-5 melanoma"}, "[18]": {"test_system": "SN12C renal"}, "[19]": {"test_system": "SR leukemia"}, "[20]": {"test_system": "SW-620 colon"}, "[21]": {"test_system": "UACC-257 melanoma"}, "[22]": {"test_system": "UACC-62 melanoma"}, "[23]": {"test_system": "UO-31 renal"}}, "note": "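Cultured in 96-well plates, cells were exposed to test compound for 48 hours across five concentrations. GI50 marks 50% less growth. TGI is the concentration that stops growth completely.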", "data": [{"smiles": "C(#Cc1cnccn1)/C=C\\C#Cc1cnccn1", "values": [{"measurement": "TGI", "setting": "[1]", "result": "> 100", "unit": "µM"}, {"measurement": "GI50", "setting": "[2]", "result": 23.3, "unit": "µM"}, {"measurement": "TGI", "setting": "[2]", "result": 68.1, "unit": "µM"}, {"measurement": "GI50", "setting": "[3]", "result": 1.65, "unit": "µM"}, {"measurement": "TGI", "setting": "[3]", "result": 3.79, "unit": "µM"}, {"measurement": "GI50", "setting": "[4]", "result": 19.4, "unit": "µM"}, {"measurement": "TGI", "setting": "[4]", "result": "> 100", "unit": "µM"}, {"measurement": "GI50", "setting": "[5]", "result": 2.4, "unit": "µM"}, {"measurement": "TGI", "setting": "[5]", "result": 18.1, "unit": "µM"}, {"measurement": "GI50", "setting": "[6]", "result": 7.46, "unit": "µM"}, {"measurement": "TGI", "setting": "[6]", "result": 44.3, "unit": "µM"}, {"measurement": "GI50", "setting": "[7]", "result": 7.14, "unit": "µM"}, {"measurement": "TGI", "setting": "[7]", "result": 28.4, "unit": "µM"}, {"measurement": "GI50", "setting": "[8]", "result": 16.4, "unit": "µM"}, {"measurement": "TGI", "setting": "[8]", "result": 31.7, "unit": "µM"}, {"measurement": "GI50", "setting": "[9]", "result": 12.5, "unit": "µM"}, {"measurement": "TGI", "setting": "[9]", "result": "> 100", "unit": "µM"}, {"measurement": "GI50", "setting": "[10]", "result": 29.7, "unit": "µM"}, {"measurement": "TGI", "setting": "[10]", "result": 97.3, "unit": "µM"}, {"measurement": "GI50", "setting": "[11]", "result": 8.49, "unit": "µM"}, {"measurement": "TGI", "setting": "[11]", "result": 43.8, "unit": "µM"}, {"measurement": "GI50", "setting": "[12]", "result": 13, "unit": "µM"}, {"measurement": "TGI", "setting": "[12]", "result": 38.6, "unit": "µM"}, {"measurement": "GI50", "setting": "[13]", "result": 22.8, "unit": "µM"}, {"measurement": "TGI", "setting": "[13]", "result": "> 100", "unit": "µM"}, {"measurement": "GI50", "setting": "[14]", "result": 15, "unit": "µM"}, {"measurement": "TGI", "setting": "[14]", "result": 32.1, "unit": "µM"}, {"measurement": "GI50", "setting": "[15]", "result": 15.4, "unit": "µM"}, {"measurement": "TGI", "setting": "[15]", "result": 46.1, "unit": "µM"}, {"measurement": "GI50", "setting": "[16]", "result": 41.8, "unit": "µM"}, {"measurement": "TGI", "setting": "[16]", "result": "> 100", "unit": "µM"}, {"measurement": "GI50", "setting": "[17]", "result": 19.8, "unit": "µM"}, {"measurement": "TGI", "setting": "[17]", "result": 39.9, "unit": "µM"}, {"measurement": "GI50", "setting": "[18]", "result": 13.6, "unit": "µM"}, {"measurement": "TGI", "setting": "[18]", "result": 29.9, "unit": "µM"}, {"measurement": "GI50", "setting": "[19]", "result": 3.54, "unit": "µM"}, {"measurement": "TGI", "setting": "[19]", "result": "> 100", "unit": "µM"}, {"measurement": "GI50", "setting": "[20]", "result": 2.87, "unit": "µM"}, {"measurement": "TGI", "setting": "[20]", "result": 6.88, "unit": "µM"}, {"measurement": "GI50", "setting": "[21]", "result": 7.43, "unit": "µM"}, {"measurement": "TGI", "setting": "[21]", "result": 27.1, "unit": "µM"}, {"measurement": "GI50", "setting": "[22]", "result": 10.4, "unit": "µM"}, {"measurement": "TGI", "setting": "[22]", "result": 22.3, "unit": "µM"}, {"measurement": "GI50", "setting": "[23]", "result": 36, "unit": "µM"}, {"measurement": "TGI", "setting": "[23]", "result": "> 100", "unit": "µM"}]}]}
